Measurements from ChEMBL document CHEMBL1126625, “7-Azetidinylquinolones as antibacterial agents. Synthesis and structure-activity relationships” (J Med Chem, 1993).
Values after ≈ are worked out from the molar mass of the structure shown.

How the values were obtained:
Format in all cases: functional
Enterococcus faecalis = assay: Minimum inhibitory concentration (MIC) preventing growth of Streptococcus faecalis ATCC 10541
Staphylococcus aureus = assay: Minimum inhibitory concentration (MIC) preventing growth of […]
Bacillus subtilis = assay: Minimum inhibitory concentration (MIC) preventing growth of Bacillus subtilis
Proteus vulgaris = assay: Minimum inhibitory concentration (MIC) preventing growth of Proteus vulgaris
Enterobacter cloacae = assay: Minimum inhibitory concentration (MIC)preventing growth of Enterobacter cloacae
[1] = system: Staphylococcus epidermidis; assay: Minimum inhibitory concentration (MIC) preventing growth of Staphylococcus epidermidis
Escherichia coli = assay: Minimum inhibitory concentration (MIC)preventing growth of Escherichia coli
Pseudomonas aeruginosa = assay: Minimum inhibitory concentration (MIC)preventing growth of Pseudomonas aeruginosa
Klebsiella pneumoniae = assay: Minimum inhibitory concentration (MIC)preventing growth of Klebsiella pneumoniae
Bacillus cereus = assay: Minimum inhibitory concentration (MIC) preventing growth of Bacillus cereus
Morganella morganii = assay: Minimum inhibitory concentration (MIC) preventing growth of Morganella morganii

Row | SMILES | MIC (Enterococcus faecalis) [µg/mL] | MIC (Staphylococcus aureus) [µg/mL] | MIC (Bacillus subtilis) [µg/mL] | MIC (Proteus vulgaris) [µg/mL] | MIC (Enterobacter cloacae) [µg/mL] | MIC [1] [µg/mL] | MIC (Escherichia coli) [µg/mL] | MIC (Pseudomonas aeruginosa) [µg/mL] | MIC (Klebsiella pneumoniae) [µg/mL] | MIC (Bacillus cereus) [µg/mL] | MIC (Morganella morganii) [µg/mL]
1 | CC(=O)CN(C)C1(C)CN(c2cc3c(cc2F)c(=O)c(C(=O)O)cn3C2CC2)C1 | 2 (≈ 4.98 µM) | 0.25 (≈ 0.623 µM) | 0.06 (≈ 0.149 µM) | 0.5 (≈ 1.25 µM) | 0.25 (≈ 0.623 µM) | 0.25 (≈ 0.623 µM) | 0.25 (≈ 0.623 µM) | 4 (≈ 9.96 µM) | 0.015 (≈ 0.0374 µM) | 0.25 (≈ 0.623 µM) | 0.5 (≈ 1.25 µM)
2 | CC1(N)CN(c2c(F)cc3c(=O)c(C(=O)O)cn(-c4ccc(F)cc4F)c3c2F)C1 | 0.25 (≈ 0.593 µM) | 0.25 (≈ 0.593 µM) | 0.25 (≈ 0.593 µM) | 0.5 (≈ 1.19 µM) | 0.25 (≈ 0.593 µM) | 0.5 (≈ 1.19 µM) | 0.25 (≈ 0.593 µM) | 2 (≈ 4.75 µM) | 0.5 (≈ 1.19 µM) | 0.5 (≈ 1.19 µM) | 0.5 (≈ 1.19 µM)
3 | CC1(N)CN(c2cc3c(cc2F)c(=O)c(C(=O)O)cn3CCF)C1 | 2 (≈ 5.93 µM) | 1 (≈ 2.96 µM) | 0.25 (≈ 0.741 µM) | 1 (≈ 2.96 µM) | 1 (≈ 2.96 µM) | 1 (≈ 2.96 µM) | 0.5 (≈ 1.48 µM) | 4 (≈ 11.9 µM) | 0.5 (≈ 1.48 µM) | 1 (≈ 2.96 µM) | 0.5 (≈ 1.48 µM)
4 | CCC1(O)CN(c2cc3c(cc2F)c(=O)c(C(=O)O)cn3C2CC2)C1 | 1 (≈ 2.89 µM) | 0.12 (≈ 0.346 µM) | 0.015 (≈ 0.0433 µM) | 0.25 (≈ 0.722 µM) | 0.25 (≈ 0.722 µM) | 0.12 (≈ 0.346 µM) | 0.12 (≈ 0.346 µM) | 2 (≈ 5.77 µM) | 0.12 (≈ 0.346 µM) | 1 (≈ 2.89 µM) | 0.5 (≈ 1.44 µM)
5 | CCn1cc(C(=O)O)c(=O)c2cc(F)c(N3CC(C)(N)C3)cc21 | 0.25 (≈ 0.783 µM) | 0.5 (≈ 1.57 µM) | 0.25 (≈ 0.783 µM) | 1 (≈ 3.13 µM) | 0.5 (≈ 1.57 µM) | 0.5 (≈ 1.57 µM) | 0.5 (≈ 1.57 µM) | 2 (≈ 6.26 µM) | 0.5 (≈ 1.57 µM) | 1 (≈ 3.13 µM) | 0.25 (≈ 0.783 µM)
6 | CNC1(C)CN(c2cc3c(cc2F)c(=O)c2c(=O)[nH]sc2n3C2CC2)C1 | 0.06 (≈ 0.16 µM) | 0.06 (≈ 0.16 µM) | 0.03 (≈ 0.0801 µM) | 0.12 (≈ 0.32 µM) | 0.06 (≈ 0.16 µM) | 0.06 (≈ 0.16 µM) | 0.03 (≈ 0.0801 µM) | 0.5 (≈ 1.34 µM) | 0.03 (≈ 0.0801 µM) | 0.06 (≈ 0.16 µM) | 0.06 (≈ 0.16 µM)
7 | Nc1c(F)c(N2CC(N)C2)c(F)c2c1c(=O)c(C(=O)O)cn2-c1ccc(F)cc1F | 0.06 (≈ 0.142 µM) | 0.03 (≈ 0.071 µM) | 0.015 (≈ 0.0355 µM) | 0.12 (≈ 0.284 µM) | 0.015 (≈ 0.0355 µM) | 0.06 (≈ 0.142 µM) | 0.015 (≈ 0.0355 µM) | 0.12 (≈ 0.284 µM) | 0.06 (≈ 0.142 µM) | 0.06 (≈ 0.142 µM) | 0.03 (≈ 0.071 µM)
8 | NC1CN(c2cc3c(cc2F)c(=O)c2c(=O)[nH]sc2n3C2CC2)C1 | 0.12 (≈ 0.346 µM) | 0.06 (≈ 0.173 µM) | 0.03 (≈ 0.0866 µM) | 0.12 (≈ 0.346 µM) | 0.03 (≈ 0.0866 µM) | 0.06 (≈ 0.173 µM) | 0.007 (≈ 0.0202 µM) | 0.25 (≈ 0.722 µM) | 0.03 (≈ 0.0866 µM) | 0.06 (≈ 0.173 µM) | 0.015 (≈ 0.0433 µM)

Now from value to molecule:

Row | MIC (Enterococcus faecalis) [µg/mL] | MIC (Staphylococcus aureus) [µg/mL] | MIC (Bacillus subtilis) [µg/mL] | MIC (Proteus vulgaris) [µg/mL] | MIC (Enterobacter cloacae) [µg/mL] | MIC [1] [µg/mL] | MIC (Escherichia coli) [µg/mL] | MIC (Pseudomonas aeruginosa) [µg/mL] | MIC (Klebsiella pneumoniae) [µg/mL] | MIC (Bacillus cereus) [µg/mL] | MIC (Morganella morganii) [µg/mL] | SMILES
9 | 4 (≈ 11.3 µM) | 1 (≈ 2.81 µM) | 0.25 (≈ 0.704 µM) | 1 (≈ 2.81 µM) | 1 (≈ 2.81 µM) | 1 (≈ 2.81 µM) | 1 (≈ 2.81 µM) | 4 (≈ 11.3 µM) | 1 (≈ 2.81 µM) | 1 (≈ 2.81 µM) | 1 (≈ 2.81 µM) | CC1(N)CN(c2c(F)cc3c(=O)c(C(=O)O)cn(CCF)c3c2F)C1
10 | 2 (≈ 5.19 µM) | 0.12 (≈ 0.311 µM) | 0.06 (≈ 0.156 µM) | 0.25 (≈ 0.649 µM) | 0.12 (≈ 0.311 µM) | 0.12 (≈ 0.311 µM) | 0.12 (≈ 0.311 µM) | 2 (≈ 5.19 µM) | 0.12 (≈ 0.311 µM) | 0.12 (≈ 0.311 µM) | 0.25 (≈ 0.649 µM) | CC1(N)CN(c2cc3c(cc2F)c(=O)c(C(=O)O)cn3-c2ccc(F)cc2)C1
11 | 1 (≈ 2.85 µM) | 0.25 (≈ 0.714 µM) | 0.015 (≈ 0.0428 µM) | 0.5 (≈ 1.43 µM) | 0.5 (≈ 1.43 µM) | 0.25 (≈ 0.714 µM) | 0.5 (≈ 1.43 µM) | 4 (≈ 11.4 µM) | 0.5 (≈ 1.43 µM) | 0.25 (≈ 0.714 µM) | 0.5 (≈ 1.43 µM) | CC1(O)CN(c2c(F)cc3c(=O)c(C(=O)O)cn(C4CC4)c3c2F)C1
12 | 1 (≈ 2.69 µM) | 0.25 (≈ 0.672 µM) | 0.06 (≈ 0.161 µM) | 1 (≈ 2.69 µM) | 0.015 (≈ 0.0403 µM) | 0.12 (≈ 0.323 µM) | 0.06 (≈ 0.161 µM) | 1 (≈ 2.69 µM) | 0.015 (≈ 0.0403 µM) | 0.5 (≈ 1.34 µM) | 0.015 (≈ 0.0403 µM) | CC1(N)CN(c2c(F)cc3c(=O)c(C(=O)O)cn(CCF)c3c2Cl)C1
13 | 0.5 (≈ 1.38 µM) | 0.25 (≈ 0.688 µM) | 0.06 (≈ 0.165 µM) | 0.25 (≈ 0.688 µM) | 0.25 (≈ 0.688 µM) | 0.5 (≈ 1.38 µM) | 0.25 (≈ 0.688 µM) | 4 (≈ 11 µM) | 0.06 (≈ 0.165 µM) | 0.25 (≈ 0.688 µM) | 0.25 (≈ 0.688 µM) | NC(=O)C1CN(c2c(F)cc3c(=O)c(C(=O)O)cn(C4CC4)c3c2F)C1
14 | 2 (≈ 5.77 µM) | 0.25 (≈ 0.722 µM) | 0.015 (≈ 0.0433 µM) | 0.12 (≈ 0.346 µM) | 0.12 (≈ 0.346 µM) | 0.12 (≈ 0.346 µM) | 0.06 (≈ 0.173 µM) | 2 (≈ 5.77 µM) | 0.12 (≈ 0.346 µM) | 0.12 (≈ 0.346 µM) | 0.12 (≈ 0.346 µM) | CN(C)C1CN(c2nc3c(cc2F)c(=O)c(C(=O)O)cn3C2CC2)C1
